Measured values reported in patent US11077210B2, “Near-infrared fluorescent contrast bioimaging agents and methods of use thereof” (Beth Israel Deaconess Medical Center, priority 2013, dated 2021).

Experiments:
[1] = system: ureters; experiment: Ureter NIR fluorescence imaging (FLARE); type: in vivo; conditions: 35 kg female pig, 5 μmol intravenously, waiting period 30 min, imaged over next 4 hours; Channel 1 (700 nm) or Channel 2 (800 nm)
Experimental: (§1) Absorbance and fluorescence emission spectra were measured using fiber optic HR2000 absorbance (200-1100 nm) and USB2000FL fluorescence (350-1000 nm) spectrometers (Ocean Optics, Dunedin, Fla.). Excitation was provided by a 532 nm green laser pointer (Opcom Inc., Xiamen, China) set to 5 mW, a 655 nm red laser pointer (Opcom Inc., Xiamen, China) set to 5 mW, or a 770 nm NIR laser diode light source (Electro Optical Components, Santa Rosa, Calif.) set to 10 mW and coupled through a 300 μm core diameter, NA 0.22 fiber (Fiberguide Industries, Stirling, N.J.). In silico calculations of the partition coefficient (log D at pH 7.4) and surface molecular charge and hydrophobicity were calculated using MarvinSketch 5.2.1 by taking major microspecies at pH 7.4 (ChemAxon, Budapest, Hungary). NIR Fluorescence Imaging System The dual-NIR channel FLARE′ imaging system has been described in detail previously (26-28). […] Color and two independent NIR fluorescence emission images (≈700 nm for Channel 1 and ≈800 nm for Channel 2) were acquired simultaneously with custom software at rates up to 15 Hz over a 15 cm diameter field of view. NIR fluorescence from Channel 1 was pseudo-colored in red and NIR fluorescence from Channel 2 was pseudo-colored in lime green prior to merger with the color video image. […] Animal Models and Intraoperative NIR Fluorescence Imaging […]

[2] = system: bile duct; experiment: Bile duct NIR fluorescence imaging (FLARE); type: in vivo; conditions: 35 kg female pig, 5 μmol intravenously, 4 hours; Channel 1 (700 nm) or Channel 2 (800 nm)
Experimental: as §1

[3] = system: thoracic duct; experiment: Thoracic duct NIR fluorescence imaging (FLARE); type: in vivo; conditions: 35 kg female pig, 5 μmol subcutaneously into the lower leg, 30 minutes; Channel 1 (700 nm) or Channel 2 (800 nm)
Experimental: as §1

[4] = system: pan lymph nodes; experiment: Pan lymph node NIR fluorescence imaging (FLARE); type: in vivo; conditions: 250 g male rat, 20 nmol intravenously, 4 hours; Channel 1 (700 nm) or Channel 2 (800 nm)
Experimental: as §1

[5] = system: white adipose tissue; experiment: White adipose tissue NIR fluorescence imaging (FLARE); type: in vivo; conditions: 25 g male mouse, 25 nmol intravenously, 4 hours; Channel 1 (700 nm) or Channel 2 (800 nm)
Experimental: as §1

[6] = system: pancreas; experiment: Pancreas NIR fluorescence imaging (FLARE); type: in vivo; conditions: 35 kg female pig, 5 μmol intravenously, 4 hours; Channel 1 (700 nm) or Channel 2 (800 nm)
Experimental: as §1

[7] = system: pituitary gland; experiment: Pituitary gland NIR fluorescence imaging (FLARE); type: in vivo; conditions: 25 g male mouse, 25 nmol intravenously, 4 hours; Channel 1 (700 nm) or Channel 2 (800 nm)
Experimental: as §1

[8] = system: adrenal; experiment: Adrenal NIR fluorescence imaging (FLARE); type: in vivo; conditions: 35 kg female pig, 5 μmol intravenously, 4 hours; Channel 1 (700 nm) or Channel 2 (800 nm)
Experimental: as §1

[9] = system: ovaries; experiment: Ovary NIR fluorescence imaging (FLARE); type: in vivo; conditions: 25 g female mouse, 25 nmol intravenously, 4 hours; Channel 1 (700 nm) or Channel 2 (800 nm)
Experimental: as §1

[10] = system: spleen; experiment: Spleen NIR fluorescence imaging (FLARE); type: in vivo; conditions: 25 g male mouse, 25 nmol intravenously, 4 hours; Channel 1 (700 nm) or Channel 2 (800 nm)
Experimental: as §1

[11] = system: seminal vesicle; experiment: Seminal vesicle NIR fluorescence imaging (FLARE); type: in vivo; conditions: 25 g male mouse, 25 nmol intravenously, 4 hours; Channel 1 (700 nm) or Channel 2 (800 nm)
Experimental: as §1

[12] = system: salivary glands; experiment: Salivary gland NIR fluorescence imaging (FLARE); type: in vivo; conditions: 25 g male mouse, 25 nmol intravenously, 4 hours; Channel 1 (700 nm) or Channel 2 (800 nm)
Experimental: as §1

[13] = system: stem cells; experiment: Stem cell tracking: NIR fluorescence microscopy of labelled cells; type: cell-based; conditions: 2 μM, 30 min incubation at 37° C., fixed in 2% paraformaldehyde, 10 μm sections; fluorescence microscope Channel 1 (700 nm) or Channel 2 (800 nm)
[14] = system: brown fat; experiment: Brown adipose tissue NIR fluorescence imaging (FLARE); type: in vivo; conditions: 25 g male mouse, 25 nmol intravenously, 4 hours; Channel 1 (700 nm) or Channel 2 (800 nm)
Experimental: as §1

[15] = system: thyroid; experiment: Thyroid NIR fluorescence imaging (FLARE); type: in vivo; conditions: 35 kg female pig, 5 μmol intravenously, 4 hours; Channel 1 (700 nm) or Channel 2 (800 nm)
Experimental: as §1

[16] = system: parathyroid; experiment: Parathyroid NIR fluorescence imaging (FLARE); type: in vivo; conditions: 35 kg female pig, 5 μmol intravenously, 4 hours; Channel 1 (700 nm) or Channel 2 (800 nm)
Experimental: as §1

[17] = system: choroid plexus; experiment: Choroid plexus NIR fluorescence imaging (FLARE); type: in vivo; conditions: 25 g male mouse, 25 nmol intravenously, 4 hours; Channel 1 (700 nm) or Channel 2 (800 nm)
Experimental: as §1

[18] = system: CSF; experiment: CSF NIR fluorescence imaging (FLARE); type: in vivo; conditions: 35 kg female pig, 5 μmol intravenously, 4 hours; Channel 1 (700 nm) or Channel 2 (800 nm)
Experimental: as §1

[19] = system: brain grey matter; experiment: Brain grey matter NIR fluorescence imaging (FLARE); type: in vivo; conditions: 25 g male mouse, 25 nmol intravenously, 4 hours; Channel 1 (700 nm) or Channel 2 (800 nm)
Experimental: as §1

[20] = system: gallbladder; experiment: Gallbladder NIR fluorescence imaging (FLARE); type: in vivo; conditions: 25 g male mouse, 25 nmol intravenously, 4 hours; Channel 1 (700 nm) or Channel 2 (800 nm)
Experimental: as §1

## CC1(C)C(/C=C/C2=C(c3ccc(CCC(=O)O)cc3)C(=C/C=C3/N(CCC[N+](C)(C)C)c4ccc(S(=O)(=O)O)cc4C3(C)C)/CCC2)=[N+](CCC[N+](C)(C)C)c2ccc(S(=O)(=O)O)cc21 [A71]
[1]
  NIR fluorescence contrast of the ureter: highlighted with high contrast

## CC1(C)C(/C=C/C(Br)=C/C=C2/N(CCC[N+](C)(C)C)c3ccc(S(=O)(=O)O)cc3C2(C)C)=[N+](CCC[N+](C)(C)C)c2ccc(S(=O)(=O)O)cc21 [A106]
[2]
  NIR fluorescence contrast of the bile duct: highlighted with high contrast
[3]
  NIR fluorescence contrast of the thoracic duct: highlighted with high contrast

## CC1(C)C(/C=C/C(Br)=C/C=C2/N(CCC[N+](C)(C)C)c3ccc(Br)cc3C2(C)C)=[N+](CCC[N+](C)(C)C)c2ccc(Br)cc21 [A150]
[4]
  NIR fluorescence contrast of all lymph nodes: highlighted with high contrast

## CCCCN1/C(=C/C=C/C=C/C=C/C2=[N+](CCCC)c3ccc(Cl)cc3C2(C)C)C(C)(C)c2cc(Cl)ccc21 [AH34]
[5]
  NIR fluorescence contrast of the white adipose tissue: highlighted with high contrast

## COc1ccc2c(c1)C(C)(C)C(/C=C/C=C/C=C/C=C1/N(C)c3ccc(OC)cc3C1(C)C)=[N+]2C [AL22]
[6]
  NIR fluorescence contrast of the pancreas: highlighted with high contrast
[7]
  NIR fluorescence contrast of the pituitary gland: highlighted with high contrast

## CCCCN1/C(=C/C=C/C=C/C=C/C2=[N+](CCCC)c3ccccc3C2(C)C)C(C)(C)c2ccccc21 [AL27]
[8]
  NIR fluorescence contrast of the adrenal: highlighted with high contrast
[9]
  NIR fluorescence contrast of the ovaries: highlighted with high contrast

## CC1(C)C(/C=C/C=C/C=C/C=C2/N(CCCc3ccccc3)c3ccccc3C2(C)C)=[N+](CCCc2ccccc2)c2ccccc21 [AL29]
[10]
  NIR fluorescence contrast of the spleen: highlighted with high contrast

## CC1(C)C(/C=C/C2=C(Sc3ccc(CC(=O)O)cc3)C(=C/C=C3/N(CCC[N+](C)(C)C)c4ccc(S(=O)(=O)O)cc4C3(C)C)/CCC2)=[N+](CCC[N+](C)(C)C)c2ccc(S(=O)(=O)O)cc21 [CNN2]
[11]
  NIR fluorescence contrast of the seminal vesicle: highlighted with high contrast

## CC1(C)C(/C=C/C=C/C=C2/N(CCCc3ccccc3)c3ccc4ccccc4c3C2(C)C)=[N+](CCCc2ccccc2)c2ccc3ccccc3c21 [E16]
[8]
  NIR fluorescence contrast of the adrenal: highlighted with high contrast

## CC1(C)C(/C=C/C(Br)=C/C=C2/N(CCCc3ccccc3)c3ccc4ccccc4c3C2(C)C)=[N+](CCCc2ccccc2)c2ccc3ccccc3c21 [E24]
[10]
  NIR fluorescence contrast of the spleen: highlighted with high contrast

## CC1(C)C(/C=C/C(=C/C=C2/N(CCC[N+](C)(C)C)c3ccc(S(=O)(=O)O)cc3C2(C)C)Oc2ccc(CCC(=O)O)cc2)=[N+](CCC[N+](C)(C)C)c2ccc(S(=O)(=O)O)cc21 [LN15]
[1]
  NIR fluorescence contrast of the ureter: highlighted with high contrast

## CC1(C)C(/C=C/C2=C(NCCc3ccc(N)cc3)C(=C/C=C3/N(CCC[N+](C)(C)C)c4ccc(S(=O)(=O)O)cc4C3(C)C)/CCC2)=[N+](CCC[N+](C)(C)C)c2ccc(S(=O)(=O)O)cc21 [LN65]
[11]
  NIR fluorescence contrast of the seminal vesicle: highlighted with high contrast

## CN1\C(=C/C=C/C=C/C2=[N+](C)c3cc4c(cc3C2(C)C)OCO4)C(C)(C)c2cc3c(cc21)OCO3 [NRB1]
[12]
  NIR fluorescence contrast of the salivary glands: highlighted with high contrast

## CCN(CC)c1ccc(/C=C/C2=CC(/C=C/c3ccc(N(CC)CC)cc3)=[O+][B-](F)(F)O2)cc1 [PS31]
[5]
  NIR fluorescence contrast of the white adipose tissue: highlighted with high contrast

## CCN1/C(=C/C=C2\CCCC(/C=C/C3=[N+](CC)c4ccccc4C3(C)C)=C2Oc2ccc(CCN)cc2)C(C)(C)c2ccccc21 [PS126]
[13]
  NIR fluorescence contrast of the cytoplasm of cell: highlighted with high contrast

## CCN1/C(=C/C=C(/C=C/C2=[N+](CC)c3ccccc3C2(C)C)Oc2ccc(CCN)cc2)C(C)(C)c2ccccc21 [PS127]
[13]
  NIR fluorescence contrast of the cytoplasm of cell: highlighted with high contrast

## CN1/C(=C/C=C/C=C/C=C/C2=[N+](C)c3ccc(Br)cc3C2(C)C)C(C)(C)c2cc(Br)ccc21 [QBN1]
[14]
  NIR fluorescence contrast of the brown fat: highlighted with high contrast

## CN1/C(=C/C=C/C=C/C=C/C2=[N+](C)c3ccc(F)cc3C2(C)C)C(C)(C)c2cc(F)ccc21 [QBN14]
[15]
  NIR fluorescence contrast of the thyroid: highlighted with high contrast
[16]
  NIR fluorescence contrast of the parathyroid: highlighted with high contrast

## CN1/C(=C/C=C/C=C/c2sc3ccccc3[n+]2C)Sc2ccccc21 [SP28]
[17]
  NIR fluorescence contrast of the choroid plexus: highlighted with high contrast

## CCCCN1/C(=C/C=C/C=C/c2sc3ccccc3[n+]2CCCC)Sc2ccccc21 [SP30]
[14]
  NIR fluorescence contrast of the brown fat: highlighted with high contrast

## CCN1/C(=C/C=C/C=C/c2sc3cc(C)ccc3[n+]2CC)Sc2cc(C)ccc21 [SP60]
[7]
  NIR fluorescence contrast of the pituitary gland: highlighted with high contrast

## CN(C)CCCN1/C(=C/C=C/C=C/c2sc3cc(O)ccc3[n+]2CCCN(C)C)Sc2cc(O)ccc21 [SP66]
[18]
  NIR fluorescence contrast of the CSF: highlighted with high contrast

## CN1/C(=C/C=C/C=C/C2=[N+](C)c3ccc(F)cc3C2(C)C)C(C)(C)c2cc(F)ccc21 [T14]
[15]
  NIR fluorescence contrast of the thyroid: highlighted with high contrast
[16]
  NIR fluorescence contrast of the parathyroid: highlighted with high contrast
[6]
  NIR fluorescence contrast of the pancreas: highlighted with high contrast

## CCN(CC)c1ccc2nc3ccc(=[N+](CC)CC)cc-3oc2c1 [WuA96]
[19]
  NIR fluorescence contrast of the brain grey matter: highlighted with high contrast

## CCCC[N+]1=C(/C=C/C=C/C=C/C=C2/N(C)c3ccccc3C2(C)C)C(C)(C)c2cc(OC)ccc21 [ZK189]
[19]
  NIR fluorescence contrast of the brain grey matter: highlighted with high contrast

## CN1/C(=C/C2=CC3=C/C(=C/c4sc5cc(O)ccc5[n+]4C)CCC3CC2)Sc2cc(O)ccc21 (stereo not drawn) [ZK198]
[20]
  NIR fluorescence contrast of the gallbladder: highlighted with high contrast
[2]
  NIR fluorescence contrast of the bile duct: highlighted with high contrast
[3]
  NIR fluorescence contrast of the thoracic duct: highlighted with high contrast

## CN1/C(=C/C=C/C=C/C=C/c2sc3ccccc3[n+]2C)Sc2ccccc21 [ZK208]
[17]
  NIR fluorescence contrast of the choroid plexus: highlighted with high contrast

## CNCCCN1/C(=C/C=C/C=C/c2sc3ccccc3[n+]2CCCNC)Sc2ccccc21 [ZK211]
[12]
  NIR fluorescence contrast of the salivary glands: highlighted with high contrast
